Assay: xn = mol fraction of the nth substance listed

Cc1cccc2ccccc12 + CCCCCCC
viscosity [mPa·s], 100 kPa
Conditions	x2 = 0.125	x2 = 0.25	x2 = 0.375	x2 = 0.5	x2 = 0.625	x2 = 0.75	x2 = 0.875
303.15 K	1.84	1.36	1.03	0.8	0.644	0.524	0.438
323.15 K	1.3	1	0.781	0.625	0.512	0.424	0.357

CC(=O)N(C)C + CCO
viscosity [mPa·s], 101 kPa
Conditions	298.15 K	303.15 K	308.15 K	313.15 K	318.15 K
x1 = 0.0653	–	0.9549	0.8702	0.8052	0.7371
x1 = 0.0809	–	0.944	–	–	–
x1 = 0.1358	0.9918	0.9129	0.8423	0.7795	0.716
x1 = 0.1399	–	0.915	–	–	–
x1 = 0.2001	–	0.894	–	–	–
x1 = 0.2123	0.9588	0.8868	0.8171	0.7631	0.7077
x1 = 0.2626	–	0.878	–	–	–
x1 = 0.2954	0.9368	0.8691	0.8034	0.7509	0.6996
x1 = 0.3738	–	0.865	–	–	–
x1 = 0.386	0.9289	0.8634	0.7995	0.751	0.6999
x1 = 0.4854	0.928	0.8622	0.8019	0.753	0.7022
x1 = 0.4935	–	0.861	–	–	–
x1 = 0.5947	0.9232	0.8595	0.7991	0.7552	0.7034
x1 = 0.5953	–	0.862	–	–	–
x1 = 0.6938	–	0.863	–	–	–
x1 = 0.7155	0.9273	0.8639	0.8093	–	0.7108
x1 = 0.7965	–	0.865	–	–	–
x1 = 0.8498	0.9421	0.8705	0.81	–	0.7156
x1 = 0.8971	–	0.867	–	–	–
